{"source": "patent US9770479B2", "about": "“Extract of Rehmannia glutinasa Libosch for reducing blood sugar, reducing blood fat, treating leukemia, and preparation method and uses thereof” (priority 2007, dated 2017)", "key": {"[1]": {"test_system": "acute nonlymphocytic leukemia (ANLL) cell", "assay": "Apoptosis induction / DNA fragments percentage in ANLL bone marrow cells", "format": "cell-based, human", "conditions": "for DNA fragments percentage: n 15", "excerpt": "(§1) In order to investigate catalpol and the Rehmannia glutinasa Libosch. extract according to the present invention for their effect of inducing apoptosis in leukemia cells as well as the mechanism, bone marrows and HL260 cells from 15 patients with acute nonlymphocytic leukemia (ANLL) were mixed with catalpol and co-cultivated for 24 hr, and then different test methods including cytomorphologic means, DNA gel electrophoresis and DNA fragments percentage analysis were adopted to observe the effect on apoptosis in leukemia cells."}, "HL260 cell": {"test_system": "HL260 cell", "assay": "Apoptosis induction / DNA fragments percentage in HL260 cells", "format": "cell-based", "conditions": "for DNA fragments percentage: n 4", "excerpt": "as §1"}, "[2]": {"test_system": "Alloxan-Induced Hyperglycemic Mice", "assay": "Blood glucose in alloxan-induced hyperglycemic mice", "format": "in vivo, Kunming mice", "conditions": "500 mg/Kg intragastric daily", "description": "Male Kunming mice weighing 25-29 g\nRaising condition: The mice were housed in a laboratory animal room of 2nd grade that was ventilated regularly with the temperature controlled at 20-24° C.\nMale mice were selected and firstly fasted for 6 hr, and alloxan was injected into tail vein at a dose of 60 mg/kg. After 72 hr, the mice having blood glucose values […] were selected as experimental animals and grouped.\nThe alloxan-induced hyperglycemic mice were randomly divided into groups labeled as normal control, model control, low-dose A, mid-dose A, high-dose A, DD, B, C, D, E and F. Subsequently, intragastric administration was performed for 15 consecutive days. 16 hours after the last administration, the mice were fasted for 8 hr. Blood glucose values before administration, and at 1 hour after administration for 5 days, 10 day and 15 days were tested respectively on blood collected from the inguinal vein, and the results were as follows: […]"}, "[3]": {"test_system": "Spontaneous Hyperglycemic KK Mice", "assay": "Blood glucose in spontaneous hyperglycemic KK mice (type II diabetes model)", "format": "in vivo", "conditions": "500 mg/kg intragastric once a day", "description": "Forty male and female KK diabetes mice weighing about 40 g were separately housed at a temperature of […] and fed on a fat-heavy diet and arbitrary amount of water. After being fast food but not fast water for 2 hr, 10 μl blood collected from the tail veins was tested for blood glucose values, and mice having blood glucose value ≧8.0 mmol/L were selected.\nThe mice obtained from the above step were randomly divided into groups labeled as model control, low-dose A, mid-dose A, high-dose A, DD, B, C, D, E and F. Subsequently, intragastric administration was performed once a day for 15 consecutive days. Blood glucose values before administration, and at one hour after administration for 5 days, 10 day and 15 days (fast food but not fast water for two hours after last administration) were tested respectively, and the results were as follows: […]"}, "bcl22": {"test_system": "bcl22", "assay": "Immunohistochemical protein expression of gene bcl22 in bone marrow cells", "format": "cell-based, human", "conditions": "bone marrow cells before and after treatment; immunohistochemical method", "excerpt": "as §1"}, "[4]": {"conditions": "table section 'after treating with the extract for 24 hrs', 10 μg · ml^−1"}, "[5]": {"conditions": "table section 'at 24 hrs after treatment with catalpol', 10 μg · ml^−1"}, "[6]": {"conditions": "co-cultivated 24 hr, cytomorphology, DNA gel electrophoresis, DNA fragments percentage"}, "[7]": {"conditions": "table section 'after treating with the extract for 24 hrs', 10 − 7 mol · L^−1"}, "[8]": {"conditions": "table section 'at 24 hrs after treatment with catalpol', 10 − 7 mol · L^−1"}}, "note": "Marks after values point to notes of the source that are not given here."}
{"compound": "Nc1ccn([C@@H]2O[C@H](CO)[C@@H](O)[C@@H]2O)c(=O)n1", "note": "[Ara2c]", "values": [{"measurement": "DNA fragments percentage", "setting": "[1]; [4]", "value": "39.7 ± 7.9", "unit": "%"}, {"measurement": "DNA fragments percentage", "setting": "[1]; [5]", "value": "40.1 ± 8.2", "unit": "%"}, {"measurement": "DNA fragments percentage", "setting": "HL260 cell; [4]", "value": "27.0 ± 1.1", "unit": "%"}, {"measurement": "DNA fragments percentage", "setting": "HL260 cell; [5]", "value": "28.2 ± 1.4", "unit": "%"}]}
{"compound": "CN(C)C(=N)NC(=N)N", "note": "[DD, dimethyl diguanidine]", "values": [{"measurement": "Blood Glucose Value", "setting": "[2]; 0 day (before administration)", "value": 19.7, "unit": "mmol/L"}, {"measurement": "Blood Glucose Value", "setting": "[2]; 5 days", "value": "12.5** mmol/L"}, {"measurement": "Blood Glucose Value", "setting": "[2]; 10 days", "value": "13.2** mmol/L"}, {"measurement": "Blood Glucose Value", "setting": "[2]; 15 days", "value": "14.0** mmol/L"}, {"measurement": "Blood Glucose Value", "setting": "[3]; 0 day (before administration)", "value": "13.36 ± 2.85", "unit": "mmol/L"}, {"measurement": "Blood Glucose Value", "setting": "[3]; 5 days", "value": "11.16 ± 3.19", "unit": "mmol/L"}, {"measurement": "Blood Glucose Value", "setting": "[3]; 10 days", "value": "10.03 ± 2.11", "unit": "mmol/L"}, {"measurement": "Blood Glucose Value", "setting": "[3]; 15 days", "value": "8.84 ± 4.51", "unit": "mmol/L"}]}
{"compound": "OC[C@H]1O[C@@H](O[C@@H]2OC=C[C@H]3[C@H](O)[C@@H]4O[C@]4(CO)[C@@H]23)[C@H](O)[C@@H](O)[C@@H]1O", "note": "[catalpol]", "values": [{"measurement": "induction of apoptosis", "setting": "[1]; [6]", "value": "able to induce apoptosis"}, {"measurement": "protein expression of gene bcl22", "setting": "bcl22", "value": "obviously lowered"}, {"measurement": "induction of apoptosis", "setting": "HL260 cell; [6]", "value": "able to induce apoptosis"}]}
{"compound": "COC(=O)C[C@](O)(CCCC(C)(C)O)C(=O)O[C@@H]1C(OC)=C[C@]23CCCN2CCc2cc4c(cc2[C@H]13)OCO4", "note": "[HHT]", "values": [{"measurement": "DNA fragments percentage", "setting": "[1]; [7]", "value": "36.2 ± 5.0", "unit": "%"}, {"measurement": "DNA fragments percentage", "setting": "[1]; [8]", "value": "38.1 ± 5.1", "unit": "%"}, {"measurement": "DNA fragments percentage", "setting": "HL260 cell; [7]", "value": "25.3 ± 1.0", "unit": "%"}, {"measurement": "DNA fragments percentage", "setting": "HL260 cell; [8]", "value": "26.1 ± 1.2", "unit": "%"}]}
